Measured values from the supplement of paper PMC11451515.

Assays:
Test in all cases: AUC of viability dose-response curve (% viability x log10 dose units); higher = less sensitive
Conditions in all cases: 48 h
[1] = system: NOMO1
Summary of the method: (§1)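 Viability of medium-adapted leukemia cells was measured by CellTiter-Glo One luminescence after 48 h at 37°C with library compounds in DMSO. Doses were 11 threefold steps from 47 μM to 0.79 nM, in 1536-well plates at 500 or 1000 cells/well. Signals were normalised per plate to DMSO and cell-free wells and fitted with a four-parameter log-logistic model on log10 dose. Area under the curve was integrated by trapezoidal rule, with curves exceeding full viability scaled and failed quality-control curves removed.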

[2] = system: P12-Ichikawa
Summary of the method: as §1

[3] = system: SEM cells
Summary of the method: as §1

[4] = RPMI 5 mM glucose + 10% dialyzed FBS

Row | SMILES | AUC of viability dose-response curve ([1]; HPLM + 10% dialyzed FBS) | AUC of viability dose-response curve ([1]; RPMI 5 mM glucose + 10% FBS) | AUC of viability dose-response curve [1, 4] | AUC of viability dose-response curve ([2]; HPLM + 10% dialyzed FBS) | AUC of viability dose-response curve ([2]; RPMI 5 mM glucose + 10% FBS) | AUC of viability dose-response curve [2, 4] | AUC of viability dose-response curve ([3]; HPLM + 10% dialyzed FBS) | AUC of viability dose-response curve ([3]; RPMI 5 mM glucose + 10% FBS) | AUC of viability dose-response curve [3, 4]
1 | Cc1nc(N)ncc1-c1nc(N2CCOCC2)c2sc(C(C)(C)O)cc2n1 | 204 | 264 | 285 | 213 | 279 | 276 | 249 | 163 | 220
2 | Cc1cnc(Nc2ccc(N3CCN(C)CC3)cc2)nc1Nc1cccc([S+](=O)([O-])NC(C)(C)C)c1 | 375 | 411 | 406 | 400 | 390 | 400 | 311 | 303 | 324
3 | Oc1c(Cl)cc(Cl)c2cccnc12 | 446 | 438 | 462 | 465 | 447 | 449 | 435 | 439 | 433
4 | Nc1ccn([C@H]2CS[C@@H](CO)O2)c(=O)n1 | 459 | 464 | 472 | 440 | 471 | 464 | 454 | 445 | 470
5 | CN1CCN(CCCN2c3ccccc3Sc3ccc(Cl)cc32)CC1.O=C(O)/C=C\C(=O)O.O=C(O)/C=C\C(=O)O | 362 | 390 | 386 | 429 | 421 | 423 | 471 | 466 | 465
6 | Nc1ccc([S+](=O)([O-])Nc2ncccn2)cc1 | 467 | 444 | 452 | 464 | 452 | 471 | 460 | 462 | 437
7 | Oc1ccc(-c2ccc(-c3cc(Nc4cccc(CNC5CC5)c4)[nH]n3)cc2)c(O)c1 | 402 | 396 | 409 | 403 | 372 | 404 | 321 | 376 | 374
8 | CC(C)CC(N(C)C)C1(c2ccc(Cl)cc2)CCC1 (configuration not stated) | 441 | 457 | 463 | 393 | 392 | 382 | 424 | 408 | 406
9 | C=CC(=O)Nc1ccc2ncnc(Nc3ccc(OCc4cccc(F)c4)c(Cl)c3)c2c1 | 355 | 368 | 355 | 404 | 404 | 404 | 370 | 400 | 383
10 | COc1ccc2[nH]cc(CCNC(C)=O)c2c1 | 474 | 429 | 462 | 451 | 458 | 444 | 472 | 469 | 446
11 | Nc1nc(N)c(N=O)c(OCC2CCCCC2)n1 | 381 | 379 | 380 | 395 | 372 | 371 | 340 | 354 | 370
12 | C[C@H]1Oc2cc(cnc2N)-c2c(nn(C)c2C#N)CN(C)C(=O)c2ccc(F)cc21 | 459 | 467 | 463 | 462 | 463 | 461 | 446 | 457 | 473
13 | CCCCCCCCCCCC/1=C(O)/C(=O)/C=C(O)\C1=O | 326 | 301 | 326 | 357 | 357 | 375 | 462 | 454 | 457
14 | O=[S+]([O-])(NCCNC/C=C/c1ccc(Br)cc1)c1cccc2cnccc12 | 452 | 446 | 425 | 462 | 460 | 458 | 377 | 418 | 354
15 | CCOC(=O)[C@@H](N)CCC(=O)N[C@@H](CSCc1ccccc1)C(=O)N[C@@H](C(=O)OCC)c1ccccc1 | 468 | 466 | 474 | 467 | 458 | 458 | 466 | 473 | 461
16 | CC[C@H]1CN2CCc3cc(OC)c(OC)cc3[C@@H]2C[C@@H]1C[C@H]1NCCc2cc(OC)c(OC)cc21 | 305 | 300 | 305 | 289 | 279 | 300 | 193 | 214 | 240
17 | CCOC(=O)N[C@@H]1CC[C@@H]2[C@@H](C1)C[C@H]1C(=O)O[C@H](C)[C@H]1[C@H]2/C=C/c1ccc(-c2cccc(F)c2)cn1 | 466 | 467 | 468 | 472 | 464 | 466 | 473 | 458 | 461
18 | N#Cc1ccc(NC(=O)Nc2ccccc2Br)c2nn[nH]c12 | 477 | 463 | 456 | 475 | 457 | 465 | 448 | 473 | 449
19 | Cc1cccc(-c2[nH]c(C(C)(C)C)nc2-c2ccc3c(c2)OCO3)n1 | 418 | 399 | 398 | 413 | 406 | 423 | 411 | 409 | 411

Row | SMILES | AUC of viability dose-response curve ([1]; HPLM + 10% dialyzed FBS) | AUC of viability dose-response curve ([1]; RPMI 5 mM glucose + 10% FBS) | AUC of viability dose-response curve [1, 4] | AUC of viability dose-response curve ([2]; HPLM + 10% dialyzed FBS) | AUC of viability dose-response curve ([2]; RPMI 5 mM glucose + 10% FBS) | AUC of viability dose-response curve [2, 4] | AUC of viability dose-response curve ([3]; HPLM + 10% dialyzed FBS) | AUC of viability dose-response curve ([3]; RPMI 5 mM glucose + 10% FBS) | AUC of viability dose-response curve [3, 4]
20 | CC(C)n1cnc2c(NCCc3ccc(O)cc3)nc(-c3csc4ccccc34)nc21 | 393 | 434 | 433 | 371 | 428 | 422 | 424 | 396 | 388
21 | CC(C)(C)OC(=O)Nc1ccc(-c2cc(C(=O)NCCCCCCC(=O)NO)no2)cc1 | 379 | 346 | 361 | 333 | 297 | 276 | 343 | 333 | 288
22 | OC[C@H]1OC(OC2=CC3=C(C(=C2)O)C(=O)\C(=C/O3)C4=CC=C(O)C=C4)[C@H](O)[C@@H](O)[C@@H]1O (some centres not stated) | 391 | 407 | 372 | 405 | 401 | 391 | 408 | 454 | 451
23 | N#C/C(=C1/Nc2ccccc2S1)c1ccnc(OCc2ccc(CN3CCOCC3)cc2)n1 | 399 | 412 | 407 | 429 | 422 | 434 | 468 | 472 | 461
24 | Cn1cnc([N+](=O)[O-])c1Sc1ncnc2nc[nH]c12 | 353 | 342 | 353 | 381 | 365 | 367 | 398 | 337 | 299
25 | NNc1nncc2ccccc12 | 472 | 461 | 466 | 470 | 452 | 463 | 436 | 454 | 438
26 | CCOCC(O)COc1ccc(NC(=O)CC[S+](C)C)cc1 (configuration not stated) | 460 | 411 | 413 | 442 | 452 | 408 | 451 | 424 | 433
27 | CC(S)C(=O)NCC(=O)O (configuration not stated) | 464 | 440 | 469 | 471 | 476 | 472 | 438 | 432 | 417
28 | CCCCc1nc2cc(/C=C/C(=O)NO)ccc2n1CCN(CC)CC | 370 | 326 | 349 | 345 | 337 | 348 | 344 | 345 | 303
29 | CCCCCN(CCC12CC3CC(CC(C3)C1)C2)C(=O)NCCCc1ccncc1 | 454 | 465 | 467 | 458 | 469 | 465 | 472 | 463 | 466
30 | COc1cc2ncn(-c3cc(OCc4ccccc4C(F)(F)F)c(C(N)=O)s3)c2cc1OC | 349 | 375 | 375 | 333 | 352 | 364 | 358 | 354 | 372
31 | Oc1ccc2ccccc2c1SSc1c(O)ccc2ccccc12 | 470 | 469 | 469 | 474 | 464 | 463 | 453 | 450 | 417
32 | N#CC[C@H](C1CCCC1)n1cc(-c2ncnc3[nH]ccc23)cn1 | 384 | 374 | 407 | 408 | 401 | 372 | 405 | 396 | 402
33 | NC[C@H]1O[C@H](O[C@H]2[C@H](O)[C@@H](O[C@H]3O[C@H](CO)[C@@H](O)[C@H](N)[C@H]3O)[C@H](N)C[C@@H]2N)[C@H](N)C[C@@H]1O | 467 | 467 | 452 | 459 | 455 | 413 | 455 | 470 | 469
34 | CC(C)c1c(C(=O)Nc2ccccc2)c(-c2ccccc2)c(-c2ccc(F)cc2)n1CC[C@@H](O)C[C@@H](O)CC(=O)[O-] | 428 | 431 | 412 | 448 | 400 | 409 | 440 | 439 | 447
35 | CN1CCC(CC1)=C2C3=C(C=CC=C3)\C=C/C4=C2C=CC=C4 | 470 | 467 | 468 | 473 | 467 | 477 | 469 | 467 | 468
36 | COc1cc(OC)c(C(=O)CCCN2CCCC2)c(OC)c1 | 448 | 440 | 441 | 464 | 456 | 417 | 446 | 451 | 443
37 | COC(=O)Nc1nc2ccc([S+]([O-])c3ccccc3)cc2[nH]1 (configuration not stated) | 460 | 468 | 466 | 441 | 454 | 461 | 417 | 438 | 441
38 | N#Cc1ccnc(N2C(=O)CC[C@H]2C(=O)N(c2cncc(F)c2)[C@H](C(=O)NC2CC(F)(F)C2)c2ccccc2Cl)c1 | 348 | 356 | 380 | 321 | 333 | 361 | 359 | 334 | 379
